From US20250367267A1, “TREATING AUTOIMMUNE DISEASES WITH INSULIN-LIKE GROWTH FACTOR 1 RECEPTOR LIGAND CONJUGATED TO AN AGENT” (Lirum Therapeutics, Inc., priority 2022, published 2025)
“Also recorded” adds a separate entry of the source.

Legend:
[1] = test system: CD19+ B cells and CD3+ T cells in the peripheral blood of SLE patients; conditions: Jacobi et al 2010; cited from earlier work
[2] = test system: bulk subpopulations of PBMCs from patients with SLE, RA and SSc; assay: Effect of LX-101 on bulk PBMC subpopulations (percentage of live cells by flow cytometry); format: cell-based, human; conditions: 17 μM LX-101, three days
Text: Frozen peripheral blood mononuclear cells (PBMCs) were obtained from Discovery Life Sciences from patients diagnosed with lupus, rheumatoid arthritis, and scleroderma. One sample was obtained from a person diagnosed with systemic lupus erythematosus (SLE) undergoing active treatment with methotrexate, Celebrex, prednisone, and Benlysta. A second sample was obtained from a person diagnosed with scleroderma (SSc) before receiving treatment. A third sample was obtained from a person diagnosed with rheumatoid arthritis (RA) undergoing active treatment with Nabumetone. All samples were collected following informed consent.
The PBMCs were thawed, washed, and resuspended in AIM V media with 5% human AB serum (hAB) at a concentration of 1×10^6 cells/mL. PBMCs were seeded in a 24 well plate (1×10^6 cells/well) and treated with a 17 μM of LX-101 or hydrochloric acid (HCl) as a vehicle control. […]
After the three day incubation with LX-101 or the vehicle control, the PBMCs were blocked with human TruStain FcX Fc receptor blocking solution, and stained with an antibody mixture with markers shown in Table 2. […] Data were analyzed with Kaluza software.
The effect of LX-101 was analyzed for both the bulk PBMC and IGF-1R^+ subpopulations. The percentages of live, B cells, CD4^+ T cells, CD8^+ T cells, NK cells, and NKT cells were determined.

[3] = test system: IGF-1R+ subpopulations of PBMCs from patients with SLE, RA and SSc; assay: Effect of LX-101 on IGF-1R+ PBMC subpopulations (percentage of live IGF-1R+ cells by flow cytometry); format: cell-based, human; conditions: 17 μM LX-101, three days
Text: Frozen peripheral blood mononuclear cells (PBMCs) were obtained from Discovery Life Sciences from patients diagnosed with lupus, rheumatoid arthritis, and scleroderma. One sample was obtained from a person diagnosed with systemic lupus erythematosus (SLE) undergoing active treatment with methotrexate, Celebrex, prednisone, and Benlysta. A second sample was obtained from a person diagnosed with scleroderma (SSc) before receiving treatment. A third sample was obtained from a person diagnosed with rheumatoid arthritis (RA) undergoing active treatment with Nabumetone. All samples were collected following informed consent. The PBMCs were thawed, washed, and resuspended in AIM V media with 5% human AB serum (hAB) at a concentration of 1×10^6 cells/mL. PBMCs were seeded in a 24 well plate (1×10^6 cells/well) and treated with a 17 μM of LX-101 or hydrochloric acid (HCl) as a vehicle control. LX-101 was supplied at a concentration of 4 mM (where the concentration is expressed in terms of the amount of methotrexate in the drug) in 10 mM HC1. The vehicle control groups received the same concentration of HCl as that in the LX-101 solution received by the treatment group. PBMCs were incubated at 37° C. with 5% CO2 for three days. After the three day incubation with LX-101 or the vehicle control, the PBMCs were blocked with human TruStain FcX Fc receptor blocking solution, and stained with an antibody mixture with markers shown in Table 2. Cells were fixed and flow cytometric data were collected for 50,000 live cell events using a BD LSRFortessa X-20 flow cytometer. Data were analyzed with Kaluza software. The effect of LX-101 was analyzed for both the bulk PBMC and IGF-1R^+ subpopulations. The percentages of live, B cells, CD4^+ T cells, CD8^+ T cells, NK cells, and NKT cells were determined.

IGFBPs = conditions: known in the art (U.S. Pat. No. 4,876,242; Francis et al. 1992); cited from earlier work
IGF-1R = IGF-1R (Homo sapiens, UniProt P08069); conditions: Hakuno et al. 2018; cited from earlier work
[4] = PBMCs from SLE, RA and SSc patients

Sequence of IGF-1R (P08069 31-736 limits assumed, species assumed): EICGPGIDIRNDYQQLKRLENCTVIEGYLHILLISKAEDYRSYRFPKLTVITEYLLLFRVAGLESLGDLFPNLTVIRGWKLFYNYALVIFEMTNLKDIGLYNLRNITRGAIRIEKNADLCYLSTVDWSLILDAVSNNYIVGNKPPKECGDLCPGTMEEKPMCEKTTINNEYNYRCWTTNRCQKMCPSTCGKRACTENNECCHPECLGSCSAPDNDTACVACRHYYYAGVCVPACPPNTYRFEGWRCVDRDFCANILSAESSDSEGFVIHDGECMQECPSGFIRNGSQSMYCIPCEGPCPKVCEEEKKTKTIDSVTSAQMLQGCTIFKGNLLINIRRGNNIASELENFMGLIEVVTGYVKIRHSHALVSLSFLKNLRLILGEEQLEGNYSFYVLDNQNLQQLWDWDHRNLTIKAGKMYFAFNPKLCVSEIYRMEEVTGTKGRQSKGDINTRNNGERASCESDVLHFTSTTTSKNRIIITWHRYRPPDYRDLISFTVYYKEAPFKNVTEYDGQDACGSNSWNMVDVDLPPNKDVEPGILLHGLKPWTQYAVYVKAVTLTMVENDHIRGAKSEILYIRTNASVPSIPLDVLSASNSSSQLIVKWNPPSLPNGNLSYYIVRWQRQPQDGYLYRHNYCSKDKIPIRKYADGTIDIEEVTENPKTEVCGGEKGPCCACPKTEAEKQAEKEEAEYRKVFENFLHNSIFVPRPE
Sequence of IGF-1R (P08069 741-1367 partner limits assumed, species assumed): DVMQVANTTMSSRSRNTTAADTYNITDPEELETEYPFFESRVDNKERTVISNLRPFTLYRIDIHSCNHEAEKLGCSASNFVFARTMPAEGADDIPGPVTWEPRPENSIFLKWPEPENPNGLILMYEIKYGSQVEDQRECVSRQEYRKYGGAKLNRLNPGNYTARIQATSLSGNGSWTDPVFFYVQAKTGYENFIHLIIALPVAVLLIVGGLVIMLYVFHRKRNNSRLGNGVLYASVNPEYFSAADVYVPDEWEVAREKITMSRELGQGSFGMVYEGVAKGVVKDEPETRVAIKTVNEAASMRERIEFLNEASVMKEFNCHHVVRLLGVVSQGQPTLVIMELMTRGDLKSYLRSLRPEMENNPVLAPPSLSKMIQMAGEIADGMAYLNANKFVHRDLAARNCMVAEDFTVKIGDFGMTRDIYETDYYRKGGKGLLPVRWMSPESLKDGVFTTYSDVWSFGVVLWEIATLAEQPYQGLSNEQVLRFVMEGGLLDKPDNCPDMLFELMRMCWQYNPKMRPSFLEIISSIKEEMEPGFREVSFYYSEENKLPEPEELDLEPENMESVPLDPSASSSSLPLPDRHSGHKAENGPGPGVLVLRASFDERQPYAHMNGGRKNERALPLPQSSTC

Benlysta: a B lymphocyte stimulator (BLyS)-specific inhibitor
number of CD3+ T cells [1]: not affected | total CD19+ B cells in the peripheral blood [1]: decrease

LX-101
off-target effects in IGF-1R− cells [2]: Little off-target effects | percentage of live B cells, CD4+ T cells, CD8+ T cells, NK cells and NKT cells in the bulk PBMC population, vs vehicle control [2]: Little difference | percentage of IGF-1R+CD19+ B cells vs vehicle control [3, 4]: reduced percentages; also recorded: reduction | percentage of live IGF-1R+ cells (all subpopulations) vs vehicle control [3, 4]: marked reductions; also recorded: Reduced percentages | IGF-1R+CD3+CD8+ T cells vs vehicle control ([3]; SLE, RA and SSc samples): reduction; also recorded: reduced percentages | IGF-1R+CD56+CD3+ natural killer T (NKT) cells vs vehicle control ([3]; SLE, RA and SSc samples): modest reduction; also recorded: reduced percentages | IGF-1R+CD3+CD4+ T cells vs vehicle control ([3]; SLE, RA and SSc samples, especially RA sample): substantial reduction; also recorded: reduced percentages | IGF-1R+CD56+CD3− natural killer (NK) cells vs vehicle control ([3]; particularly samples from SLE and RA patients): reduction; also recorded: reduced percentages

R3-IGF-1: glutamic acid in position 3 of native human IGF-1 is substituted by arginine
binding affinity for IGFBPs compared to wildtype IGF-1 (IGFBPs): reduced binding affinity

des (1-3) IGF-1: lacks the first three amino acids of human IGF-1
binding affinity for IGFBPs compared to wildtype IGF-1 (IGFBPs): reduced binding affinity

insulin: native ligand to the IGF-1R; two chains connected by disulfide bonds
affinity for IGF-1R, fold lower than the IGFs (IGF-1R): 50- to 100 fold

B1: IGF132: first 17 amino acids of the B chain of insulin replace the first 16 amino acids of human IGF-1 (protein)
chain: FVNQHLCGSHLVEALYLVCGDRGFYFNKPTGYGSSSRRAPQTGIVDECCFRSCDLRRLEMYCAPLKPAKSA
binding affinity for IGFBPs compared to wildtype IGF-1 (IGFBPs): reduced binding affinity
